Columns and labels:
[1] = tested on: LasA protease; test: LasA staphylolytic assay of culture supernatants; type: cell-based, Pseudomonas aeruginosa; settings: for LasA Activity: PAO1 grown with 40 μg/ml of sample; for decrease in LasA activity compared to control: crude extract printed 40 pg/ml, purified compounds 40 μg/ml
Protocol: LasA belongs to the p-lytic endopeptidase class of proteases (Kessler, 1995) and plays a major role in host tissue degradation (Kharazmi, 1989; Morihara & Homma, 1985). LasA protease activity was determined by measuring the ability of culture supernatants to lyse boiled S. aureus cells (Kong et al., Int. J. Med. Microbiol., 296:133-139, 2006). There was a significant decrease in LasA activity compared to that of the control when strain PAO1 was grown in the presence of C. erectus crude extract at 1 mg/ml (91% decrease), and a lesser effect at […] (26% decrease) (Table 1). Purified vescalagin and castalagin affected significant reductions in LasA activity as well, with decreases of 73% and 80%, respectively (Table 1).

[2] = tested on: LasB elastase; test: LasB elastolytic activity of culture supernatants (elastin Congo red); type: cell-based, Pseudomonas aeruginosa; settings: for decrease in LasB activity compared to control: 40 ug/ml; for Elastase Activity: PAO1 grown with 40 μg/ml of sample
Protocol: LasB elastase is a zinc metalloprotease capable of affecting the host immune system and destroying biological tissue (Bever & Iglewski, 1988). The elastolytic activity of culture supernatants was determined using elastin Congo red (ECR; Sigma, St. Louis, Mo.) (Ohman et al., 1980). There was a significant decrease in LasB activity compared to that of the control when PAO1 was grown in the presence of C. erectus at 1 mg/ml (70% decrease) or 40 ug/ml (60% decrease) (Table 1). Purified vescalagin and castalagin also affected significant reductions in LasB activity, with decreases of 67% and 63%, respectively (Table 1).

[3] = tested on: pyoverdin; test: Pyoverdin production (supernatant fluorescence); type: cell-based, Pseudomonas aeruginosa; settings: PAO1 grown with 40 μg/ml of sample
From the text: Pyoverdins function as siderophores essentially starving host tissues by competing with mammalian transferrin for iron. They also promote pathogenicity by stimulating bacterial growth (Cox & Adams, 1985), while auto-regulating themselves and the production of other toxins. Relative concentration of pyoverdin was based on fluorescence of the supernatant at an excitation wavelength of 405 nm and an emission wavelength of 465 nm (Gemini EM microplate reader). […] This is consistent with our previous data on C. erectus (Adonizio et al., 2008b).

[4] = tested on: C12-AHL (OdDHL); test: AHL production, C12-AHL; type: cell-based, Pseudomonas aeruginosa; settings: 40 μg/ml of sample
From the text: (§1) P. aeruginosa manufactures two main QS signaling molecules N-(3-oxododecanoyl)-L-homoserine lactone (OdDHL) and N-butanoyl-L-homoserine lactone (BHL) called autoinducers (Pearson et al., Proc. Natl. Acad. Sci. USA, 92:1490-1494, 1994). These molecules diffuse into the environment, and when they reach a putative threshold concentration, they activate the QS receptor genes.

[5] = tested on: C4-AHL (BHL); test: AHL production, C4-AHL; type: cell-based, Pseudomonas aeruginosa; settings: for AHL production C4-AHL: 40 μg/ml of sample
From the text: as §1

[6] = tested on: lasI; test: QS gene expression, promoter-lacZ fusion β-galactosidase assay, lasI; type: cell-based, Pseudomonas aeruginosa; settings: 40 μg/ml of sample
Protocol: (§2) Samples were tested at the following concentrations: 1 mg/ml crude extract of C. erectus, 40 μg/ml crude extract, 40 μg/ml vescalagin, or 40 μg/ml castalagin. These additions were compared to a media-only control for the reduction of QS.

[7] = tested on: lasR; settings: 40 μg/ml of sample
Protocol: as §2

[8] = tested on: rhlI; settings: 40 μg/ml of sample
Protocol: as §2

[9] = tested on: rhlR; settings: 40 μg/ml of sample
Protocol: as §2

[10] = tested on: QS genes (lasI, lasR, rhlI, rhlR); test: QS gene expression, summary over all tested QS genes; type: cell-based, Pseudomonas aeruginosa; settings: 40 μg/ml
Protocol: as §2

[11] = tested on: P. aeruginosa PAO1-derived biomonitor strains pPCS 1001 and pPCS 1002; test: Anti-QS agar well bioassay with lacZ biomonitor strains; type: cell-based, Pseudomonas aeruginosa; settings: 10 μl aliquot per well
Protocol: These strains harbor lacZ fusions to the QS gene promoter regions enabling blue/white selection for QS activity. […] Briefly, LB agar plates were seeded with a lawn of one of the biomonitor strains and allowed to dry for 1 hour. Small wells were then cut and aspirated from the agar, and 10 μl aliquots of each fraction were pipetted into each well. Wells were checked at 18 h and 24 h for zones of QS inhibition.
Each fraction was pipetted into a small well in an agar plate seeded with one of these biomonitor strains and the appropriate reagents for visualization of lacZ activity.

[12] = tested on: LasB; settings: P. putida grown in the presence of 30 μg/ml; cited from earlier work
[13] = tested on: P. putida; settings: concentrations up to 30 μg/ml; cited from earlier work

| Structure (SMILES) | LasA Activity [1] | decrease in LasA activity compared to control [1] [%] | decrease in LasB activity compared to control [2] [%] | Elastase Activity [2] | Pyoverdin production [3] | AHL production C12-AHL [4] [µM] | AHL production C4-AHL [5] [µM] | reduction of BHL levels ([5]; purified compound, 40 μg/ml) [%] | Gene Expression (measured via β-galactosidase activity of the lacZ fusion products) las1 [6] [Milller Units] | Gene Expression (measured via β-galactosidase activity of the lacZ fusion products) lasR [7] [Milller Units] | Gene Expression (measured via β-galactosidase activity of the lacZ fusion products) rhll [8] [Milller Units] | Gene Expression (measured via β-galactosidase activity of the lacZ fusion products) rhlR [9] [Milller Units] | effect on expression of QS genes [10] | anti-QS activity of HPLC fractions of Fraction A [11] | decrease in LasB activity [12] [%] | effect on growth [13] |
| --- | --- | --- | --- | --- | --- | --- | --- | --- | --- | --- | --- | --- | --- | --- | --- | --- |
| O=C1OCC2OC(=O)c3cc(O)c(O)c(O)c3-c3c(O)c(O)c(O)c4c3C(=O)OC(C2OC(=O)c2cc(O)c(O)c(O)c2-c2c1cc(O)c(O)c2O)C1OC(=O)c2c-4c(O)c(O)c(O)c2C1O (centres unmarked) [Vescalagin, vescalagin] | 0.066 ± 0.008 reduction in OD600/hour per μg total protein | 73 | 67 | 47.2 ± 6.8 absorbance at OD495 per μg of protein × 1000 | 4226 ± 138 fluorescence (405/465 nm) per μg of protein | 1.227 ± 0.16 | 0.489 ± 0.01 | 21 | 2049 ± 93 | 1703 ± 297 | 3514 ± 306 | 4129 ± 287 | reduced all QS gene levels including rhlI to a greater extent than castalagin | activity |  |  |
| O=C1OC[C@H]2OC(=O)c3cc(O)c(O)c(O)c3-c3c(O)c(O)c(O)c4c3C(=O)O[C@H]([C@H]3OC(=O)c5c-4c(O)c(O)c(O)c5[C@H]3O)[C@@H]2OC(=O)c2cc(O)c(O)c(O)c2-c2c1cc(O)c(O)c2O [Castalagin, castalagin] | 0.048 ± 0.003 reduction in OD600/hour per μg total protein | 80 | 63 | 52.7 ± 9.0 absorbance at OD495 per μg of protein × 1000 | 4207 ± 150 fluorescence (405/465 nm) per μg of protein | 1.389 ± 0.20 | 0.703 ± 0.01 |  | 2465 ± 116 | 2160 ± 509 | 4542 ± 199 | 4904 ± 348 | reduced all QS gene levels save for rhlI | activity |  |  |
| O=c1oc2c(O)c(O)cc3c(=O)oc4c(O)c(O)cc1c4c23 [ellagic acid] |  |  |  |  |  |  |  |  |  |  |  |  |  |  | 40 | no effect |
